How the values were obtained:
[1] = system: human Factor 11 mRNA; experiment: Dose-dependent inhibition of human Factor 11 in cyano primary hepatocytes, electroporation (Example 6); assay type: cell-based; conditions: ~16 hours
Method in brief: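 Cyno primary hepatocytes (35,000/well) were electroporated with antisense oligonucleotide at 0.74–180 nM and treated for about 16 hours. Human Factor 11 mRNA was quantified by qRT-PCR (primer probe set RTS 2966) and normalized to RIBOGREEN total RNA. Values are percent inhibition versus untreated cells.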

[2] = system: Factor 11 mRNA; experiment: Factor 11 mRNA in cynomolgus monkey liver, day 85 (Example 45); assay type: in vivo; conditions: cynomolgus monkeys, s.c. escalating doses 5-25 mg/kg over 12 weeks
Procedure: Groups, each consisting of two male and three female monkeys, were injected subcutaneously with ISIS 416838, ISIS 416850, ISIS 416858, ISIS 416864, or ISIS 417002 in escalating doses. Antisense oligonucleotide was administered to the monkeys at 5 mg/kg three times per a week for week 1; 5 mg/kg twice per week for weeks 2 and 3; 10 mg/kg three times per week for week 4; 10 mg/kg twice per week for weeks 5 and 6; 25 mg/kg three times per week for week 7; and 25 mg/kg twice per week for weeks 8, 9, 10, 11, and 12. One control group, consisting of two male and three female monkeys, was injected subcutaneously with PBS according to the same dosing regimen. An additional experimental group, consisting of two male and three female monkeys, was injected subcutaneously with ISIS 416850 in a chronic, lower dose regimen. Antisense oligonucleotide was administered to the monkeys at 5 mg/kg three times per week for week 1; 5 mg/kg twice per week for week 2 and 3; 10 mg/kg three times per week for week 4; and 10 mg/kg twice per week for weeks 5 to 12. Body weights were measured weekly. Blood samples were collected 14 days and 5 days before the start of treatment and subsequently once per week for Factor 11 protein activity analysis in plasma, fibrinogen measurement, PT and aPTT measurements, bleeding times, and measurement of various hematologic factors. On day 85, the monkeys were euthanized by exsanguination while under deep anesthesia, and organs harvested for further analysis.
On day 85, RNA was extracted from liver tissue for real-time PCR analysis of Factor 11 using primer probe set LTS00301 (forward primer sequence […], designated herein as SEQ ID NO 271; reverse primer sequence […], designated herein as SEQ ID NO: 272; and probe sequence TGCAGGCACAGCATCCCAGTGTTCTX, designated herein as SEQ ID NO. 273). Results are presented as percent inhibition of Factor 11, relative to PBS control.

Substance | percent inhibition of human Factor 11 mRNA relative to untreated control cells ([1]; 0.74 nM) [%] | percent inhibition of human Factor 11 mRNA relative to untreated control cells ([1]; 2.2 nM) [%] | percent inhibition of human Factor 11 mRNA relative to untreated control cells ([1]; 6.7 nM) [%] | percent inhibition of human Factor 11 mRNA relative to untreated control cells ([1]; 20 nM) [%] | percent inhibition of human Factor 11 mRNA relative to untreated control cells ([1]; 60 nM) [%] | percent inhibition of human Factor 11 mRNA relative to untreated control cells ([1]; 180 nM) [%] | % inhibition of Factor 11 mRNA in the cynomolgus monkey liver relative to the PBS control [2] [%]
416864 (antisense GGCAGCGGACGGCATTGGTG; 5-10-5 gapmer, further chemistry not given here) [compound 416864] | 0 | 1 | 15 | 23 | 47 | 64 | 44
417002 (antisense GGTGCACAGTTTCTGGCAGG; 2-13-5 gapmer chemistry, further chemistry not given here) [compound 417002] | 32 | 16 | 28 | 38 | 55 | 71 | 57
